From patent US9181273B2, “Morpholine-spirocyclic piperidine amides as modulators of ion channels” (Vertex Pharmaceuticals Incorporated, priority 2011, dated 2015) come the findings set out here.

Where only a bound is given, the exact number is not on record here.

human NaV subtype, like NaV 1.7, sequence (Q15858 whole entry): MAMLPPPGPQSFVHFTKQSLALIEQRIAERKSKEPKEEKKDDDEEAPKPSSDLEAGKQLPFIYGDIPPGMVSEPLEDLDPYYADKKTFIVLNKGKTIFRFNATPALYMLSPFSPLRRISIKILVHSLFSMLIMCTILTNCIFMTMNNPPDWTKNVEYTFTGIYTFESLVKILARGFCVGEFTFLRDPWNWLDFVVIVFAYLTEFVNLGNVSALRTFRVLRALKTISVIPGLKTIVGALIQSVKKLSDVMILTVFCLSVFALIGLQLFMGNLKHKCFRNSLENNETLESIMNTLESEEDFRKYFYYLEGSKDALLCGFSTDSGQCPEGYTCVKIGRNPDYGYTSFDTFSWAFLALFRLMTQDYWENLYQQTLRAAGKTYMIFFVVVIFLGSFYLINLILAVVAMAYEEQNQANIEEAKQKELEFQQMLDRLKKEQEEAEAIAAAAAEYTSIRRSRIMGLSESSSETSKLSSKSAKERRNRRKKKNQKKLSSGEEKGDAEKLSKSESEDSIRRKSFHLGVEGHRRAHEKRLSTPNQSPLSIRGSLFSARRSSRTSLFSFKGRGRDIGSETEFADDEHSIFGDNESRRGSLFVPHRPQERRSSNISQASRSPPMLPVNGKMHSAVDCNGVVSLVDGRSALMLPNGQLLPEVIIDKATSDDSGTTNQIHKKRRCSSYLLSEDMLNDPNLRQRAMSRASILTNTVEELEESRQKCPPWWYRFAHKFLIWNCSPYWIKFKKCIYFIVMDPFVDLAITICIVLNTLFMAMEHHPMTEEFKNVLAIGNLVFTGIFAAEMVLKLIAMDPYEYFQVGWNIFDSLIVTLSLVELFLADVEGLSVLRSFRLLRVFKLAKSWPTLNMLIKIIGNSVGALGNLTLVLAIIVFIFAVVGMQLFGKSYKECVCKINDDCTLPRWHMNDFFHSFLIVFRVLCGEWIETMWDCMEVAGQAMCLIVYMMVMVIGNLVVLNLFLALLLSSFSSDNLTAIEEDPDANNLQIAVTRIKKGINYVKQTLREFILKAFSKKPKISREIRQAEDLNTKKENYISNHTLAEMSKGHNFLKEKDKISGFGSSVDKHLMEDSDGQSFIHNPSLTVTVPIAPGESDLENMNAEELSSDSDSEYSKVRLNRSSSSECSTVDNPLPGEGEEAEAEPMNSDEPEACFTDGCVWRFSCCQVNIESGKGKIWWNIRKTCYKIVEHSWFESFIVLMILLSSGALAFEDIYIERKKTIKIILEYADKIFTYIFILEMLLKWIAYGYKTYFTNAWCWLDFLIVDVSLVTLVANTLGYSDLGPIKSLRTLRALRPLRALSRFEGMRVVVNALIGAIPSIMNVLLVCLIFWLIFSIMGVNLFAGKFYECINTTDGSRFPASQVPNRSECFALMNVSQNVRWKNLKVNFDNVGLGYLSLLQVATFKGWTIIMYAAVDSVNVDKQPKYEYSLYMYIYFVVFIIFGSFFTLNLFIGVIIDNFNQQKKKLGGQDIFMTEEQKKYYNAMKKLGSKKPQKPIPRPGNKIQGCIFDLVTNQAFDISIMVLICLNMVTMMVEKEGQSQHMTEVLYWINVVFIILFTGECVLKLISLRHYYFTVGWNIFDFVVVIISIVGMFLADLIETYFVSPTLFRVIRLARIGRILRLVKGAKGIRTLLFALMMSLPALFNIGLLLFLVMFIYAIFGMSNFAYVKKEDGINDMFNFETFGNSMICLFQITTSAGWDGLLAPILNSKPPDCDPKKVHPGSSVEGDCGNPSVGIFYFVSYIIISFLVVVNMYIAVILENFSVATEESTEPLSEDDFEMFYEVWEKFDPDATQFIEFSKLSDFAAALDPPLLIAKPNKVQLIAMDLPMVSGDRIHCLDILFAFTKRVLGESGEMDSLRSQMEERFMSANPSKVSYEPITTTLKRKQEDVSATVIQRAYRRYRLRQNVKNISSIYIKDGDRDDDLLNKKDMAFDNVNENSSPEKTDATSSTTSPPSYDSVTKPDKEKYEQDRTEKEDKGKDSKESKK

The first assay concerns the target human NaV subtype, like NaV 1.7 (Homo sapiens, UniProt Q15858). The assay can be described thus: E-VIPR optical membrane potential assay with electrical stimulation. The class given is cell-based.
Conditions: not given
For `COc1cc(C(=O)N2CCC3(CC2)CN(CC(F)F)CC(c2ccccn2)O3)ccc1OC(C)C` (stereo not drawn) [Compound 3], the concentration for half-maximal inhibition (IC50) is < 2 µM.

Staying with this assay, now noted: active against one or more sodium channels; assay and NaV subtype not specified for Table 3; read-out: IC50 Binned Activity Data.
For `COc1cc(C(=O)N2CCC3(CC2)CN(CC(F)F)CC(c2ccc(F)cc2)O3)ccc1OC(C)(C)C` (stereo not drawn) [Compound 247], the IC50 is 2 to 5 µM.

As for `COCC1CN(c2ccc(C(F)(F)F)cc2)CC2(CCN(C(=O)c3ccc(OC(C)C)c(C)c3)CC2)O1` (stereo not drawn) [Compound 124], the IC50 was < 2 µM.

As for `CCN1CC(c2ccccc2)OC2(CCN(C(=O)c3ccc(OC(C)C)c(OC)c3)CC2)C1` (stereo not drawn) [Compound 192], the 50% inhibitory concentration (IC50) was < 2 µM.

As to `COc1cc(C(=O)N2CCC3(CC2)CN(CC(F)(F)F)CC(c2ccccc2)O3)ccc1OC(C)(C)C` (stereo not drawn) [Compound 128], the IC50 was < 2 µM.

Take `COCN1CC(c2cccc(OC)n2)OC2(CCN(C(=O)c3ccc(OC(C)C)c(C)c3)CC2)C1` (stereo not drawn) [Compound 256]: the IC50 is < 2 µM.

In the case of `CC#CCN1CC(F)(F)OC2(CCN(C(=O)c3ccc(OC(C)C)c(C)c3)CC2)C1` [Compound 154], the IC50 is > 5 µM.

On to `CCC#CCN1CC(COC)OC2(CCN(C(=O)c3ccc(OC(C)C)c(C)c3)CC2)C1` (stereo not drawn) [Compound 89], for which the IC50 is < 2 µM.

`COCC1CN(c2ncc(F)cn2)CC2(CCN(C(=O)c3ccc(OC(C)C)c(C)c3)CC2)O1` (stereo not drawn) [Compound 187]: the concentration for half-maximal inhibition (IC50) is < 2 µM.

Regarding `COCCN1CC(COC)OC2(CCN(C(=O)c3ccc(OC(C)C)c(C)c3)CC2)C1` (stereo not drawn) [Compound 188], the IC50 fell in the range of 2 to 5 µM.

Turning to `COCC1CN(c2ncccn2)CC2(CCN(C(=O)c3ccc(CC(C)(C)O)cc3)CC2)O1` (stereo not drawn) [Compound 240], the IC50 was > 5 µM.

Regarding `COCC1CN(C2CCC[C@@H](C)C2)CC2(CCN(C(=O)c3ccc(OC(C)C)c(C)c3)CC2)O1` (stereo partly drawn) [Compound 232], the IC50 is < 2 µM.

On to `COc1cc(F)cc(C(=O)N2CCC3(CC2)CN(CC(F)(F)F)CC(c2ccccc2)O3)c1` (stereo not drawn) [Compound 71], for which the IC50 is > 5 µM.

Consider `Cc1cc(C(=O)N2CCC3(CC2)CN(CC(F)F)CC(c2ccccc2F)O3)ccc1OC(C)C` (stereo not drawn) [Compound 44], for which the IC50 is < 2 µM.

As for `CC(C)Oc1ccc(C(=O)N2CCC3(CC2)CN(CC(F)F)CC(c2ccc(F)cc2)O3)cc1CO` (stereo not drawn) [Compound 4], the half-inhibitory concentration (IC50) lay within 2 to 5 µM.

As to `CCC1CN(c2ccccn2)CC2(CCN(C(=O)c3ccc(C4(O)CCC4)c(C)c3)CC2)O1` (stereo not drawn) [Compound 176], the IC50 was < 2 µM.

Turning to `COCC1CN(c2ncccn2)CC2(CCN(C(=O)c3ccc(C(C)(C)O)c(F)c3)CC2)O1` (stereo not drawn) [Compound 53], the half-maximal inhibitory concentration (IC50) lay in the range of 2 to 5 µM.

As for `Cc1cc(C(=O)N2CCC3(CC2)CN(CC(F)F)CC(c2ccc(F)cc2)O3)ccc1S(C)(=O)=O` (stereo not drawn) [Compound 202], the IC50 is > 5 µM.

For `CCC1CN(c2ccccn2)CC2(CCN(C(=O)c3ccc(OC(C)C)c(C)c3)CC2)O1` (stereo not drawn) [Compound 295], the IC50 was < 2 µM.

As for `CC#CCN1CC2(CCN(C(=O)c3ccc(OC(C)C)c(C)c3)CC2)OCC1(C)C` [Compound 185], the IC50 was > 5 µM.

`Cc1cc(C(=O)N2CCC3(CC2)CN(CC(F)(F)F)CC(c2ccccc2)O3)ccc1OCCCO` (stereo not drawn) [Compound 117]: the IC50 is < 2 µM.

On to `CC#CCN1CC(CC)OC2(CCN(C(=O)c3ccc(C(C)(C)C)c(OC)c3)CC2)C1` (stereo not drawn) [Compound 129], for which the IC50 is < 2 µM.

For the compound `COc1cccc(C(=O)N2CCC3(CC2)CN(CC(F)F)CC(c2ccccc2)O3)n1` (stereo not drawn) [Compound 144], the IC50 was 2 to 5 µM.

As for `CCN(CC)C(=O)c1ccc(C(=O)N2CCC3(CC2)CN(CC(F)(F)F)CC(c2ccccc2)O3)cc1F` (stereo not drawn) [Compound 293], the IC50 was < 2 µM.

Turning to `CC#CCN1CC(CC)OC2(CCN(C(=O)c3ccc(OC)c(C)c3)CC2)C1` (stereo not drawn) [Compound 141], the IC50 was > 5 µM.

On to `COCC1CN(CC2CCC2)CC2(CCN(C(=O)c3ccc(OC(C)C)c(C)c3)CC2)O1` (stereo not drawn) [Compound 47], for which the IC50 is < 2 µM.

As for `COc1cc(C(=O)N2CCC3(CC2)CN(CC(F)F)CC(c2ccc(F)cc2)O3)ccc1OC(C)C` (stereo not drawn) [Compound 274], the IC50 is < 2 µM.

On to `COc1cc(C(=O)N2CCC3(CC2)CN(CC(F)F)CC(c2cccc(C)n2)O3)cc(F)c1OC(C)C` (stereo not drawn) [Compound 162], for which the 50% inhibitory concentration (IC50) is > 5 µM.

As for `CCN1CC(C)(C)OC2(CCN(C(=O)c3ccc(OC(C)C)c(C)c3)CC2)C1` [Compound 28], the concentration for half-maximal inhibition (IC50) is > 5 µM.

On to `COCC1CN(CC#N)CC2(CCN(C(=O)c3ccc(OC(C)C)c(C)c3)CC2)O1` (stereo not drawn) [Compound 23], for which the concentration for half-maximal inhibition (IC50) is > 5 µM.

`Cc1cnc(C2CN(Cc3ccccc3)CC3(CCN(C(=O)c4ccc(OC(C)C)c(C)c4)CC3)O2)o1` (stereo not drawn) [Compound 83]: the IC50 is < 2 µM.

Take `CCC1CN(CC(=O)C(C)(C)C)CC2(CCN(C(=O)c3ccc(OC(C)C)c(C)c3)CC2)O1` (stereo not drawn) [Compound 262]: the IC50 is < 2 µM.

Take `COCC1CN(c2ncccn2)CC2(CCN(C(=O)c3ccc(S(=O)(=O)C(F)F)cc3)CC2)O1` (stereo not drawn) [Compound 8]: the IC50 is 2 to 5 µM.

Regarding `COCC1CN(C2CCN(C(C)=O)CC2)CC2(CCN(C(=O)c3ccc(OC(C)C)c(C)c3)CC2)O1` (stereo not drawn) [Compound 121], the IC50 was > 5 µM.

Turning to `Cc1cc(C(=O)N2CCC3(CC2)CN(CC#N)CC(c2ccccc2)O3)ccc1C(C)(C)O` (stereo not drawn) [Compound 68], the IC50 lay in the range of 2 to 5 µM.

Turning to `CC(C)CS(=O)(=O)c1ccc(C(=O)N2CCC3(CC2)CN(CC(F)(F)F)CC(c2ccccc2)O3)cc1` (stereo not drawn) [Compound 165], the IC50 is < 2 µM.

On to `COc1cc(C(=O)N2CCC3(CC2)CN(CC(F)(F)F)C(c2ccccc2)CO3)ccc1OC(C)C` (stereo not drawn) [Compound 104], for which the IC50 was < 2 µM.

For `CC(C)Oc1ccc(C(=O)N2CCC3(CC2)CN(CC(F)(F)F)CC(c2ccccc2)O3)cc1F` (stereo not drawn) [Compound 94], the IC50 was < 2 µM.

With `COCC1CN(C2CCC2)CC2(CCN(C(=O)c3ccc(OC(C)C)c(C)c3)CC2)O1` (stereo not drawn) [Compound 285], the IC50 was < 2 µM.

In the case of `CCN1CC2(CCN(C(=O)c3ccc(OC(C)C)c(C)c3)CC2)OCC1c1ccccc1` (stereo not drawn) [Compound 10], the IC50 is < 2 µM.

`O=C(c1cccc(F)c1OC(F)F)N1CCC2(CC1)CN(CC(F)(F)F)CC(c1ccccc1)O2` (stereo not drawn) [Compound 299]: the IC50 was > 5 µM.

Turning to `COc1cc(C(=O)N2CCC3(CC2)CN(CC(F)(F)F)CC(c2ccccc2)O3)ccc1OC(C)C` (stereo not drawn) [Compound 278], the IC50 was < 2 µM.

Turning to `Cc1cn[nH]c1C1CN(CC(F)F)CC2(CCN(C(=O)c3ccc(OC(C)C)c(F)c3)CC2)O1` (stereo not drawn) [Compound 298], the IC50 was < 2 µM.

Turning to `Cc1cc(C(=O)N2CCC3(CC2)CN(c2ncccn2)C(C)(C)CO3)ccc1OC(C)C` [Compound 51], the IC50 is > 5 µM.

Take `Cc1cccc(C2CN(CC(F)F)CC3(CCN(C(=O)c4ccc(OC(C)C)c(C)c4)CC3)O2)n1` (stereo not drawn) [Compound 37]: the IC50 is < 2 µM.

Regarding `CCC1CN(CC)CC2(CCN(C(=O)c3ccc(OC(C)C)c(C)c3)CC2)O1` (stereo not drawn) [Compound 34], the IC50 was > 5 µM.

As to `COCC1CN(Cc2c(F)cccc2F)CC2(CCN(C(=O)c3ccc(OC(C)C)c(C)c3)CC2)O1` (stereo not drawn) [Compound 66], the IC50 is < 2 µM.

In the case of `Cc1cc(C(=O)N2CCC3(CC2)CN(CCO)CC(c2ccccc2)O3)ccc1OC(C)C` (stereo not drawn) [Compound 25], the IC50 fell in the range of 2 to 5 µM.

For `COCC1CN(CC(C)=O)CC2(CCN(C(=O)c3ccc(OC(C)C)c(C)c3)CC2)O1` (stereo not drawn) [Compound 113], the IC50 is > 5 µM.

`CCC1CN(c2ccccn2)CC2(CCN(C(=O)c3ccc(C(C)(C)O)c(C)c3)CC2)O1` (stereo not drawn) [Compound 97]: the IC50 is < 2 µM.

Take `COCC1CN(c2cccc(C(F)(F)F)c2)CC2(CCN(C(=O)c3ccc(C(C)(C)O)c(F)c3)CC2)O1` (stereo not drawn) [Compound 58]: the 50% inhibitory concentration (IC50) is < 2 µM.

As for `Cc1cc(C(=O)N2CCC3(CC2)CNCC(c2ccccc2)O3)ccc1OC(C)C` (stereo not drawn) [Compound 163], the IC50 is > 5 µM.

Regarding `CCOCC1CN(c2ncccn2)CC2(CCN(C(=O)c3ccc(OC(C)C)c(C)c3)CC2)O1` (stereo not drawn) [Compound 235], the IC50 is < 2 µM.

With `COCC1CN(Cc2nccs2)CC2(CCN(C(=O)c3ccc(OC(C)C)c(C)c3)CC2)O1` (stereo not drawn) [Compound 252], the IC50 lay in the range of 2 to 5 µM.

Take `COCC1CN(CC(F)F)CC2(CCN(C(=O)c3ccc(OC(C)C)c(C)c3)CC2)O1` (stereo not drawn) [Compound 178]: the IC50 is < 2 µM.

`O=C(c1cccc(Cl)c1)N1CCC2(CC1)CN(CC(F)(F)F)CC(c1ccccc1)O2` (stereo not drawn) [Compound 155]: the IC50 was > 5 µM.

In the case of `Cc1cc(C(=O)N2CCC3(CC2)CN(C(=O)C(C)C)CC(c2ccccc2)O3)ccc1OC(C)C` (stereo not drawn) [Compound 289], the IC50 is 2 to 5 µM.

On to `CCN1CC2(CCN(C(=O)c3ccc(OC(C)C)c(C)c3)CC2)OC(c2ccccc2)C1=O` (stereo not drawn) [Compound 9], for which the IC50 was 2 to 5 µM.

Regarding `Cc1cc(C(=O)N2CCC3(CC2)CN(c2ncccn2)CCO3)ccc1OC(C)C` [Compound 6], the half-maximal inhibitory concentration (IC50) lay in the range of 2 to 5 µM.

Take `COC(=O)C(C)(C)c1ccc(C(=O)N2CCC3(CC2)CN(CC(F)(F)F)CC(c2ccccc2)O3)cc1OC` (stereo not drawn) [Compound 292]: the IC50 lay within 2 to 5 µM.

Regarding `COCC1CN(c2cc(OC)ccn2)CC2(CCN(C(=O)c3ccc(OC(C)C)c(C)c3)CC2)O1` (stereo not drawn) [Compound 126], the IC50 was < 2 µM.

`CCN1CC(c2ccccc2)OC2(CCN(C(=O)c3ccc(C(C)(C)O)cc3)CC2)C1` (stereo not drawn) [Compound 158]: the IC50 is > 5 µM.

With `Cc1cccc(C2CN(CC(F)F)CC3(CCN(C(=O)c4ccc(S(=O)(=O)C(C)C)c(C)c4)CC3)O2)n1` (stereo not drawn) [Compound 265], the IC50 fell in the range of 2 to 5 µM.

For `CC#CCN1CC(CC)OC2(CCN(C(=O)c3ccc(OC)c(C(F)(F)F)c3)CC2)C1` (stereo not drawn) [Compound 30], the IC50 was > 5 µM.

Take `COCN1CC(c2ncccn2)OC2(CCN(C(=O)c3ccc(C4(O)CCC4)cc3)CC2)C1` (stereo not drawn) [Compound 264]: the IC50 is > 5 µM.

Consider `Cc1cc(C(=O)N2CCC3(CC2)CN(Cc2ccccc2)CC(CCO)O3)ccc1OC(C)C` (stereo not drawn) [Compound 2], for which the IC50 was > 5 µM.

Consider `CCC1CN(c2ncccn2)CC2(CCN(C(=O)c3ccc(C4(O)CCCC4)c(F)c3)CC2)O1` (stereo not drawn) [Compound 271], for which the half-inhibitory concentration (IC50) was < 2 µM.

On to `COc1cc(C(=O)N2CCC3(CC2)CN(CC(F)F)CC(c2ccccc2)O3)ccc1OC(C)C` (stereo not drawn) [Compound 219], for which the IC50 was < 2 µM.

For `CCCCN1CC(COC)OC2(CCN(C(=O)c3ccc(OC(C)C)c(C)c3)CC2)C1` (stereo not drawn) [Compound 101], the IC50 was < 2 µM.
